In patent publication US12552748B2, “Pyridine (thio)amides as fungicidal compounds” (Bayer Aktiengesellschaft, priority 2020, dated 2026):
Marks after values point to notes of the source that are not given here.

Assay: physchem
Format: physicochemical
Method: Measurement of Log P values as provided herein was performed according to EEC directive 79/831 Annex V.A8 by HPLC (High Performance Liquid Chromatography) on reversed phase columns with the following methods: […] If more than one Log P value is available within the same method, all the values are given and separated by “+”. Calibration was done with straight-chain alkan2-ones (with 3 to 16 carbon atoms) with known Log P values (measurement of Log P values using retention times with linear interpolation between successive alkanones). Lambda-max-values were determined using UV-spectra from 200 nm to 400 nm and the peak values of the chromatographic signals

Row | chromatographic logP | SMILES | LogP
1 |  | CON=C(C)c1cc(C(=O)NCCc2ccc(C)cc2C)c(Oc2cccc(C(F)(F)F)c2)cn1 (mixture of isomers) [Compound I-251] | 5.36^[a]
2 |  | O=C(NCC(F)c1ccc(Cl)cc1Cl)c1cc(Cl)ncc1Oc1cccc(Cl)c1 (racemic) [Compound I-035] | 4.80^[a]
3 |  | O=C(NCC(F)c1ccc(Cl)cc1Cl)c1cc(Cl)ncc1Oc1cccc(C(F)F)c1 (racemic) [Compound I-037] | 4.40^[a]
4 |  | COc1cccc(Oc2cnc(Cl)cc2C(=O)NCC(F)c2ccc(Cl)cc2Cl)c1 (racemic) [Compound I-041] | 4.51^[a]
5 |  | Cc1cccc(Oc2cnc(Cl)cc2C(=O)NCC(F)c2ccc(Cl)cc2Cl)c1 (racemic) [Compound I-043] | 4.92^[a]
6 |  | Cc1cc(C(=O)NCC(F)c2ccc(Cl)cc2Cl)c(Oc2cccc(Cl)c2)cn1 (racemic) [Compound I-053] | 4.12^[a]
7 |  | Cc1ccc(C(F)CNC(=O)c2cc(C)ncc2Oc2cccc(Cl)c2)c(Cl)c1 (racemic) [Compound I-054] | 3.98^[a]
8 |  | Cc1cc(C(=O)NCC(F)c2ccc(Cl)cc2Cl)c(Oc2cccc(C(F)F)c2)cn1 (racemic) [Compound I-055] | 3.78^[a]
9 |  | Cc1cccc(Oc2cnc(C)cc2C(=O)NCC(F)c2ccc(C)cc2Cl)c1 (racemic) [Compound I-056] | 3.96^[a]
10 |  | O=C(NCC(F)c1ccc(Cl)cc1Cl)c1cc(Cl)ncc1Oc1cccc(C2CC2)c1F (racemic) [Compound I-060] | 5.17^[a]
11 |  | O=C(NCC(F)c1ccc(Cl)cc1Cl)c1cc(Cl)ncc1Oc1cccc(C2CC2)c1 (racemic) [Compound I-063] | 4.92^[a]
12 |  | Cc1ccc(C(F)CNC(=O)c2cc(C)ncc2Oc2cccc(C3CC3)c2)c(Cl)c1 (racemic) [Compound I-073] | 4.30^[a]
13 |  | O=C(NCC(F)c1ccc(Cl)cc1Cl)c1cc(C2CC2)ncc1Oc1cccc(C2CC2)c1F (racemic) [Compound I-074] | 5.32^[a]
14 |  | Cc1ccc(C(F)CNC(=O)c2cc(C)ncc2Oc2cccc(C3CC3)c2F)c(Cl)c1 (racemic) [Compound I-076] | 4.49^[a]
15 |  | Cc1cc(C(=O)NCC(F)c2ccc(Cl)cc2Cl)c(Oc2cccc(C3CC3)c2F)cn1 (racemic) [Compound I-078] | 4.49^[a]
16 |  | Cc1ccc(C(F)CNC(=O)c2cc(Cl)ncc2Oc2cccc(C(F)(F)F)c2)cc1C (racemic) [Compound I-079] | 4.70^[a]
17 |  | Cc1cc(C(F)F)ccc1C(F)CNC(=O)c1cc(Cl)ncc1Oc1cccc(C(F)(F)F)c1 (racemic) [Compound I-080] | 4.40^[a]
18 |  | COc1cc(C(F)CNC(=O)c2cc(Cl)ncc2Oc2cccc(C(F)(F)F)c2)ccc1Cl (racemic) [Compound I-081] | 4.37^[a]
19 |  | O=C(NCC(F)c1ccc(Cl)c(Cl)c1)c1cc(Cl)ncc1Oc1cccc(C(F)(F)F)c1 (racemic) [Compound I-082] | 4.81^[a]
20 |  | Cc1ccc(C(F)CNC(=O)c2cc(Cl)ncc2Oc2cccc(C(F)(F)F)c2)c(Cl)c1 (racemic) [Compound I-083] | 4.78^[a]
21 |  | Cc1cc(Cl)ccc1C(F)CNC(=O)c1cc(Cl)ncc1Oc1cccc(C(F)(F)F)c1 (racemic) [Compound I-084] | 4.81^[a]
22 |  | O=C(NCC(F)c1ccc(C2CC2)cc1Cl)c1cc(Cl)ncc1Oc1cccc(C(F)(F)F)c1 (racemic) [Compound I-085] | 5.08^[a]

Row | chromatographic logP | SMILES | LogP
23 |  | Cc1cc(Br)ccc1C(F)CNC(=O)c1cc(Cl)ncc1Oc1cccc(C(F)(F)F)c1 (racemic) [Compound I-086] | 4.93^[a]
24 |  | O=C(NCC(F)c1ccc(Cl)cc1Cl)c1cc(Cl)nc(F)c1Oc1cccc(C(F)(F)F)c1 (racemic) [Compound I-091] | 5.08^[a]
25 |  | Cc1cccc(Oc2cnc(C)cc2C(=O)NCC(F)c2ccc(Cl)cc2Cl)c1 (racemic) [Compound I-161] | 4.13^[a]
26 |  | C[Si](C)(C)C#Cc1cc(C(=O)NCC(F)c2ccc(Cl)cc2Cl)c(Oc2cccc(C(F)(F)F)c2)cn1 (racemic) [Compound I-176] | 6.01^[a]
27 |  | C#Cc1cc(C(=O)NCC(F)c2ccc(Cl)cc2Cl)c(Oc2cccc(C(F)(F)F)c2)cn1 (racemic) [Compound I-189] | 4.41^[a]
28 |  | CCc1cc(C(=O)NCC(F)c2ccc(Cl)cc2Cl)c(Oc2cccc(C3CC3)c2)cn1 (racemic) [Compound I-190] | 4.92^[a]
29 |  | O=C(NCC(F)c1ccc(Cl)cc1Cl)c1cc(-c2ccncc2Cl)ncc1Oc1cccc(C(F)(F)F)c1 (racemic) [Compound I-195] | 4.68^[a]
30 |  | Cc1ccc(C(F)CNC(=O)c2cc(C)ncc2Oc2cccc(C(F)(F)F)c2)c(Cl)c1 (racemic) [Compound I-263] | 4.08^[a]
31 |  | Cc1ccc(CCNC(=O)c2cc(Cl)ncc2Oc2cccc(C3CC3F)c2)c(C)c1 (single isomer, unassigned) [Compound I-265] | 4.70^[a]
32 |  | O=C(O)c1cc(Cl)ncc1Oc1cccc(C(F)(F)F)c1 [Compound 1-001] | 2.84^[a]
33 |  | C#Cc1cc(C(=O)O)c(Oc2cccc(C(F)(F)F)c2)cn1 [Compound 1-002] | 2.39^[a]
34 |  | C#Cc1cc(C(=O)OC)c(Oc2cccc(C(F)(F)F)c2)cn1 [Compound 1-003] | 3.46^[a]
35 |  | COC(=O)c1cc(C#C[Si](C)(C)C)ncc1Oc1cccc(C(F)(F)F)c1 [Compound 1-004] | 5.35^[a]
36 |  | O=C(O)c1cc(Cl)ncc1Oc1cccc(Cl)c1 [Compound 1-005] | 2.76^[a]
37 |  | O=C(O)c1cc(Cl)ncc1Oc1cccc(C(F)F)c1 [Compound 1-006] | 2.48^[a]
38 |  | COc1cccc(Oc2cnc(Cl)cc2C(=O)O)c1 [Compound 1-007] | 2.34^[a]
39 |  | Cc1cccc(Oc2cnc(Cl)cc2C(=O)O)c1 [Compound 1-008] | 2.60^[a]
40 |  | O=C(O)c1cc(Cl)ncc1Oc1cccc(C2CC2)c1F [Compound 1-009] | 2.97^[a]
41 |  | O=C(O)c1cc(Cl)ncc1Oc1cccc(C2CC2)c1 [Compound 1-010] | 2.87^[a]
42 | 2.54 | CC(=O)c1cc(C(=O)O)c(Oc2cccc(C(F)(F)F)c2)cn1 [Compound 1-011, 2-acetyl-5-[3-(trifluoromethyl)phenoxy]pyridine-4-carboxylic acid] | 
43 | 3.59 | COC(=O)c1cc(C(C)=O)ncc1Oc1cccc(C(F)(F)F)c1 [Compound 1-012, methyl 2-acetyl-5-[3-(trifluoromethyl)phenoxy]pyridine-4-carboxylate] | 
44 | 4.7 | C=C(OCC)c1cc(C(=O)OC)c(Oc2cccc(C(F)(F)F)c2)cn1 [Compound 1-013, methyl 2-(1-ethoxyvinyl)-5-[3-(trifluoromethyl)phenoxy]pyridine-4-carboxylate] | 

Row | chromatographic logP | SMILES | LogP
45 | 2.95 | O=C(O)c1cc(Cl)nc(F)c1Oc1cccc(C(F)(F)F)c1 [Compound 1-014, 6-chloro-2-fluoro-3-[3-(trifluoromethyl)phenoxy]pyridine-4-carboxylic acid] | 
46 |  | N#Cc1nc(Cl)cc(C(=O)O)c1Oc1cccc(C(F)(F)F)c1 [Compound 1-016] | 2.40^[a]
47 |  | COc1cc(C(=O)O)c(Oc2cccc(C(F)(F)F)c2)cn1 [Compound 1-017] | 2.86^[a]
48 |  | COc1cc(C(=O)NCCc2ccc(C)cc2C)c(Oc2cccc(C(F)(F)F)c2)cn1 [Compound 1-160] | 4.69^[a]
49 | 3.4 | Cc1ccc(CCNC(=O)c2cc(Cl)ncc2Br)c(C)c1 [Compound 3-001, 5-bromo-2-chloro-N-[2-(2,4-dimethylphenyl)ethyl]pyridine-4-carboxamide] | 
50 |  | Cc1ccc(CCNC(=O)c2cc(C(F)(F)F)ncc2Br)c(C)c1 [Compound 3-002] | 3.77^[a]
51 |  | Cc1ccc(C(F)(F)CNC(=O)c2cc(Cl)ncc2Br)c(C)c1 [Compound 3-003] | 3.57^[a]
52 |  | O=C(NCC(F)(F)c1ccc(Br)cc1Cl)c1cc(Cl)ncc1Br [Compound 3-004] | 3.68^[a]
53 | 3.81 | Cc1ccc(C(F)(F)CNC(=O)c2c(Br)cnc(Cl)c2F)c(C)c1 [Compound 3-005, 5-bromo-2-chloro-N-[2-(2,4-dimethylphenyl)-2,2-difluoro-ethyl]-3-fluoro-pyridine-4-carboxamide] | 
54 |  | Cc1ccc(C(F)(F)CNC(=O)c2c(Br)cnc(Cl)c2Cl)c(C)c1 [Compound 3-006] | 3.98^[a]
55 |  | COc1c(Cl)ncc(Br)c1C(=O)NCC(F)(F)c1ccc(C)cc1C [Compound 3-007] | 3.75^[a]
56 |  | O=C(NCC(F)(F)c1ccc(Br)cc1Cl)c1cc(Cl)ncc1Oc1cccc(C(F)(F)F)c1 [Compound I-001] | 5.00^[a]
57 |  | Cc1ccc(CCNC(=O)c2cc(Cl)ncc2Oc2cccc(C(F)(F)F)c2)c(C)c1 [Compound I-002] | 4.73^[a]
58 |  | COc1cc(C(=O)NCC(F)(F)c2ccc(Br)cc2Cl)c(Oc2cccc(C(F)(F)F)c2)cn1 [Compound I-003] | 4.95^[a]
59 |  | COc1cc(C(=O)NCC(F)(F)c2ccc(C)cc2C)c(Oc2cccc(C(F)(F)F)c2)cn1 [Compound I-004] | 4.77^[a]
60 |  | Cc1ccc(C(F)(F)CNC(=O)c2cc(Cl)ncc2Oc2cccc(C(F)(F)F)c2)c(C)c1 [Compound I-005] | 4.77^[a]
61 |  | COc1ccc(CCNC(=O)c2cc(Cl)ncc2Oc2cccc(C(F)(F)F)c2)c(OC)c1 [Compound I-008] | 4.06^[a]
62 |  | O=C(NCC(F)(F)c1ccc(Cl)cc1Cl)c1cc(Cl)ncc1Oc1cccc(C(F)(F)F)c1 [Compound I-009] | 4.82^[a]
63 |  | O=C(NCC(F)c1ccc(Cl)cc1Cl)c1cc(Cl)ncc1Oc1cccc(C(F)(F)F)c1 (stereo not drawn) [Compound I-010] | 4.74^[a]
64 |  | O=C(NCC(F)(F)c1ccc(Cl)cc1)c1cc(Cl)ncc1Oc1cccc(C(F)(F)F)c1 [Compound I-011] | 4.41^[a]
65 |  | O=C(NCC(F)c1ccc(Br)cc1Cl)c1cc(Cl)ncc1Oc1cccc(C(F)(F)F)c1 (stereo not drawn) [Compound I-012] | 4.85^[a]
66 |  | CC(=O)c1cccc(Oc2cnc(Cl)cc2C(=O)NCCc2ccc(C)cc2C)c1 [Compound I-014] | 3.87^[a]
